Where two headings read alike, the source gives them in different places.
Assays:
[1] = test system: GT1a subgenomic replicon NS3 variants; assay: Resistant colony selection and variant susceptibility, GT1a subgenomic replicon cells; assay type: cell-based, Hepatitis C virus; settings: A156T in GT1a
Text: (§1) The inhibitory effects of the compounds of the invention on HCV replication can also be determined by measuring activity of the luciferase reporter gene encoded by subgenomic replicons not containing the Neo selectable marker, that are transiently expressed in cells. The adaptive mutations encoded by the 1a-H77, 1b-N and 1b-Con-1 replicons are the same as listed above. The 1b-Con1 replicon used for these transient assays contains the NS2-NS5B coding region rather than the NS3-5B coding region. These replicons may encode target NS3 genes as described for stable subgenomic replicons or they may encode amino acid variants that confer varying degrees of susceptibility to the drug. For example, variants could include R155K, D168E or D168V in a genotype 1a NS3 gene; R155K or D168V in a genotype 1b NS3 gene; S138T, A166T or Q168R in a genotype 3a NS3 gene. For example, cells can be transfected with the replicon by electroporation and seeded into 96 well plates at a density of 5000 cells per well in 100 μl DMEM containing 5% FBS. […] Luciferin solution (100 μl, Promega) can be added to each well, and luciferase activity can be measured with a luminometer. The percent inhibition of HCV RNA replication can be calculated for each compound concentration and the EC50 value can be calculated using nonlinear regression curve fitting to the 4-parameter logistic equation and GraphPad Prism 4 software. […]

[2] = test system: HCV stable subgenomic replicons containing NS3 genes from GT 1a, 1b, 2a, 3a, 4a, or 6a; assay: HCV stable subgenomic replicon panel, summary statements over several genotypes; assay type: cell-based; settings: Hepatitis C virus
[3] = test system: GT1b subgenomic replicon NS3 variants; assay: Resistant colony selection and variant susceptibility, GT1b subgenomic replicon cells; assay type: cell-based, Hepatitis C virus; settings: A156V in GT1b
Text: as §1

HCV genotype 6a replicon = assay: HCV subgenomic stable replicon cell culture assay (luciferase), genotype 6a; assay type: cell-based; settings: Hepatitis C virus; bound stated in description, plasma not stated; read-out: EC50 value against HCV genotype 6a
[4] = test system: replicon containing GT3a NS3 protease, variants; assay: Resistant colony selection and variant susceptibility, replicon containing GT3a NS3 protease; assay type: cell-based, Hepatitis C virus
Text: The inhibitory effects of the compounds of the invention on HCV replication can also be determined by measuring activity of the luciferase reporter gene encoded by subgenomic replicons not containing the Neo selectable marker, that are transiently expressed in cells. The adaptive mutations encoded by the 1a-H77, 1b-N and 1b-Con-1 replicons are the same as listed above. The 1b-Con1 replicon used for these transient assays contains the NS2-NS5B coding region rather than the NS3-5B coding region. These replicons may encode target NS3 genes as described for stable subgenomic replicons or they may encode amino acid variants that confer varying degrees of susceptibility to the drug. For example, variants could include R155K, D168E or D168V in a genotype 1a NS3 gene; R155K or D168V in a genotype 1b NS3 gene; S138T, A166T or Q168R in a genotype 3a NS3 gene. For example, cells can be transfected with the replicon by electroporation and seeded into 96 well plates at a density of 5000 cells per well in 100 μl DMEM containing 5% FBS. Compounds diluted in dimethyl sulfoxide (DMSO) to generate a 200× stock in a series of eight half-log dilutions can then be further diluted 100-fold in the medium containing 5% FBS and added to the cell culture plates already containing 100 μl of DMEM with 5% FBS. After an incubation period of either 3 or 4 days, 30 μl of Passive Lysis buffer (Promega) can be added to each well, with incubation for 15 minutes with rocking to lyse the cells. Luciferin solution (100 μl, Promega) can be added to each well, and luciferase activity can be measured with a luminometer. The percent inhibition of HCV RNA replication can be calculated for each compound concentration and the EC50 value can be calculated using nonlinear regression curve fitting to the 4-parameter logistic equation and GraphPad Prism 4 software.
Resistant colony selection studies in GT1a and 1b subgenomic replicon cells identified A156T in GT1a and A156V in GT1b as the most frequent variants, which conferred 1400- and 1800-fold reduced susceptibility to Compound 1, respectively. […]

## CC(C)(C)[C@@H]1NC(=O)O[C@@H]2CCC[C@H]2OC/C=C/C(F)(F)c2nc3ccccc3nc2O[C@@H]2C[C@@H](C(=O)N[C@]3(C(=O)NS(=O)(=O)C4(C)CC4)C[C@H]3C(F)F)N(C2)C1=O [Compound 1]
[1]
  fold reduced susceptibility conferred by variant: 1400 fold
[2]; bound stated for all six genotypes, read-out: EC50 value against HCV genotype 1a, 1b, 2a, 3a, 4a, and 6a
  EC50: < 3 nM
[2]; genotype 1a and 1b, 0% Human Plasma, 5% FBS, read-out: mean EC50 values, range over genotype 1a and 1b replicons
  EC50: 0.85 to 0.94 nM
[2]; genotype 1a and 1b, 40% Human Plasma, 5% FBS, read-out: mean EC50 values, range over genotype 1a and 1b replicons
  EC50: 5 to 10 nM
[2]; genotype 2a, 3a, 4a, 6a, 0% Human Plasma, 5% FBS, read-out: mean EC50 values, range over genotype 2a, 3a, 4a, and 6a replicons
  EC50: 0.86 to 2.8 nM
[3]
  fold reduced susceptibility conferred by variant: 1800 fold
HCV genotype 6a replicon
  EC50: < 1 nM
[4]; A156G alone
  fold loss in susceptibility conferred by variant: 1500 fold
[4]; Q168R co-selected with Y56H
  fold loss in susceptibility conferred by variant: 1100 fold
[4]; concentrations ≧100-fold over its EC50 value
  resistant colonies selected: very few colonies
